Reference: patent US12139520B2 (priority 2020, dated 2024)
Bridge positions count the residues as written; N and C are the ends. Square brackets hold non-standard residues; d marks the D form. Peptide text beside a SMILES is read from it. Hyp = O=C(O)[C@@H]1C[C@@H](O)CN1

Legend:
hAM1 receptor = hAM1 receptor (Homo sapiens, UniProt O60895+Q16602); experiment: cAMP assay for in vitro receptor activation, hAM1-R; format: cell-based; conditions: cAMP assay, hAM1 receptor; read-out: hAM1R EC50
Method in brief: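 Monoclonal stable hAM1-overexpressing cells, thawed from frozen stock; 8000 cells/well in DPBS + 0.05% casein + 0.5 mM IBMX; read-out cAMP.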

[1] = Physical stability of peptide analogues (Thioflavin T fibrillation); format: physicochemical; conditions: maximum ThT signal normalized between hAMY maximum and buffer background; 40° C., shaking, four days; pH 7 per table title
Method in brief: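 Maximum ThT emission at 480 nm, after LOESS smoothing, is given as percent of the span from buffer background to hAMY. Conditions: 50 mM buffer at pH 4 or 7, 4 μM dye, 40 °C, repeated shaking, readings every 10 min for four days.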

hAMY3 receptor = molecular target: T1, hAMY3 receptor (Homo sapiens, UniProt O60896+P30988); experiment: cAMP assay for in vitro receptor activation, hAMY3-R; format: cell-based; conditions: cAMP assay, hAMY3 receptor; read-out: hAMY3R EC50
T1 sequence (P30988 25-474): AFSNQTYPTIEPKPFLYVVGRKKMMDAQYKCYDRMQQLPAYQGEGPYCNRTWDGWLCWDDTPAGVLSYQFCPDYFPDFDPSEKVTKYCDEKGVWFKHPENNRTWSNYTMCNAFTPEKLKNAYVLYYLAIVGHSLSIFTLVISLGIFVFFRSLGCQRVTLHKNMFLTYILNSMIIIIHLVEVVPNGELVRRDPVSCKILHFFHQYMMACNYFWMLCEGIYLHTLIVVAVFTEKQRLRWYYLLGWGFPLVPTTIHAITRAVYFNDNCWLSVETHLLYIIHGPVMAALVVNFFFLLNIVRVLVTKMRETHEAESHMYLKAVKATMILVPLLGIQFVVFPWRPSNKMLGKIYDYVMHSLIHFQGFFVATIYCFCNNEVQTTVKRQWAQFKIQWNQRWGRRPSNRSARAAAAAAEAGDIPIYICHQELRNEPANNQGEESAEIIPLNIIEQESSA
T1 sequence (O60896 24-148 partner): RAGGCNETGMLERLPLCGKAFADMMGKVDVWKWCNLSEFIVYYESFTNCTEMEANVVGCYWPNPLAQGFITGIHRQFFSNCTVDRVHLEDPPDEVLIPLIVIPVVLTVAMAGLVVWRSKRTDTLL
Method in brief: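 Graded compound concentrations were applied for 30 min at room temperature to stably hAMY3-expressing cells in DPBS, 0.05% casein, 0.5 mM IBMX; cAMP detected by TR-FRET.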

hAM1 receptor, sequence (Q16602 23-461): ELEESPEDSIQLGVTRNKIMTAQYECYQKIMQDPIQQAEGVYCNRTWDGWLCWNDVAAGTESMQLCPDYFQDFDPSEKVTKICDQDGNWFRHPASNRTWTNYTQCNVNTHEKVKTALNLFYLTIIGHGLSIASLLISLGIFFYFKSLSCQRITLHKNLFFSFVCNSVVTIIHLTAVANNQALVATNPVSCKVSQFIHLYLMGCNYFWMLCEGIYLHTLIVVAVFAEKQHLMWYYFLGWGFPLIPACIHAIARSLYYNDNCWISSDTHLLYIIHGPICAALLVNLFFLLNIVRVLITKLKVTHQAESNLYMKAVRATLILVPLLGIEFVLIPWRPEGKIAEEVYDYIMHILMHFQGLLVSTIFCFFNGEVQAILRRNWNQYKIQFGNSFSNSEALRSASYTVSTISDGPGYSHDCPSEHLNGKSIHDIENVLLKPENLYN
hAM1 receptor, sequence (O60895 43-175 partner): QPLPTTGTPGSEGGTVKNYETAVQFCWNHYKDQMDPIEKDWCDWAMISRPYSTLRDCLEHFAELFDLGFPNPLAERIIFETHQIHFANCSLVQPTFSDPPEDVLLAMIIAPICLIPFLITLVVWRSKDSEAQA

| EC50 (hAM1 receptor) | Max ThT signal (%) [1] | EC50 (hAMY3 receptor) | SMILES |
| --- | --- | --- | --- |
| > 5000 nM | 0.200% | 0.236 nM | CC[C@H](C)[C@H](NC(=O)[C@H](CCC(N)=O)NC(=O)[C@H](Cc1c[nH]cn1)NC(=O)[C@H](C)NC(=O)[C@H](CC(C)C)NC(=O)[C@H](CCCNC(=N)N)NC(=O)[C@H](CCC(N)=O)NC(=O)[C@@H](NC(=O)[C@@H](NC(=O)[C@@H]1CSSC[C@H](NC(=O)CN)C(=O)N[C@@H](CCCNC(=N)N)C(=O)N[C@@H]([C@@H](C)O)C(=O)NCC(=O)N[C@@H]([C@@H](C)O)C(=O)N1)[C@@H](C)O)C(C)C)C(=O)N[C@@H](Cc1ccc(O)cc1)C(=O)N[C@@H](CCC(N)=O)C(=O)N[C@@H](Cc1ccccc1)C(=O)N[C@H](C(=O)N[C@@H](CC(=O)O)C(=O)N[C@@H](CCCCN)C(=O)N[C@@H](Cc1ccccc1)C(=O)N[C@@H](CCCCN)C(=O)N[C@@H](CC(=O)O)C(=O)N[C@@H](CC(N)=O)C(=O)N[C@H](C(=O)N[C@@H](C)C(=O)N1CCC[C@H]1C(=O)N[C@@H](CCCNC(=N)N)C(=O)N[C@@H](CO)C(=O)N[C@@H](CCCCN)C(=O)N[C@H](C(=O)N[C@@H](CO)C(=O)N1CCC[C@H]1C(=O)N[C@@H](CCC(N)=O)C(=O)N[C@H](C(=O)N[C@@H](Cc1ccccc1)C(N)=O)[C@@H](C)O)[C@@H](C)CC)C(C)C)[C@@H](C)O [compound 239] (H-GCRTGTCTVQRLAHQIYQFTDKFKDNVAPRSKISPQTF-NH2; disulfide 2-7; N-terminus assumed) |
| > 5000 nM | 8.200% | 0.008 nM | CC[C@H](C)[C@H](NC(=O)[C@H](CCC(N)=O)NC(=O)[C@H](Cc1c[nH]cn1)NC(=O)[C@H](C)NC(=O)[C@H](CC(C)C)NC(=O)[C@H](CCCNC(=N)N)NC(=O)[C@H](CCC(N)=O)NC(=O)[C@@H](NC(=O)[C@@H](NC(=O)[C@@H]1CSSC[C@H](NC(=O)[C@@H](N)CCCCN)C(=O)N[C@@H](CC(N)=O)C(=O)N[C@@H]([C@@H](C)O)C(=O)N[C@@H](C)C(=O)N[C@@H]([C@@H](C)O)C(=O)N1)[C@@H](C)O)C(C)C)C(=O)N[C@@H](Cc1ccc(O)cc1)C(=O)N[C@@H](CCC(N)=O)C(=O)N[C@@H](Cc1ccccc1)C(=O)N[C@H](C(=O)N[C@@H](CC(=O)O)C(=O)N[C@@H](CCCCN)C(=O)N[C@@H](CC(=O)O)C(=O)N[C@@H](CCCCN)C(=O)N[C@@H](CC(=O)O)C(=O)N[C@@H](CC(N)=O)C(=O)N[C@H](C(=O)N[C@@H](C)C(=O)N1CCC[C@H]1C(=O)N[C@@H](C)C(=O)N[C@H](C(=O)N[C@@H](CC(N)=O)C(=O)N[C@H](C(=O)NCC(=O)N[C@@H](CO)C(=O)N[C@@H](CC(N)=O)C(=O)NCC(=O)N1C[C@H](O)C[C@H]1C(N)=O)C(C)C)[C@@H](C)O)C(C)C)[C@@H](C)O [compound 28] (H-KCNTATCTVQRLAHQIYQFTDKDKDNVAPATNVGSNG[Hyp]-NH2; disulfide 2-7; N-terminus assumed) |
| > 5000 nM | 0.600% |  | CC[C@H](C)[C@H](NC(=O)[C@H](CCC(N)=O)NC(=O)[C@H](Cc1c[nH]cn1)NC(=O)[C@H](C)NC(=O)[C@H](CC(C)C)NC(=O)[C@H](CCCNC(=N)N)NC(=O)[C@H](CCC(N)=O)NC(=O)[C@@H](NC(=O)[C@@H](NC(=O)[C@@H]1CSSC[C@H](NC(=O)CN)C(=O)N[C@@H](CCCNC(=N)N)C(=O)N[C@@H]([C@@H](C)O)C(=O)NCC(=O)N[C@@H]([C@@H](C)O)C(=O)N1)[C@@H](C)O)C(C)C)C(=O)N[C@@H](Cc1ccc(O)cc1)C(=O)N[C@@H](CCC(N)=O)C(=O)N[C@@H](Cc1ccccc1)C(=O)N[C@H](C(=O)N[C@@H](CC(=O)O)C(=O)N[C@@H](CCCCN)C(=O)N[C@@H](Cc1ccccc1)C(=O)N[C@@H](CCCCN)C(=O)N[C@@H](CC(=O)O)C(=O)N[C@@H](CC(N)=O)C(=O)N[C@H](C(=O)N[C@@H](C)C(=O)N1CCC[C@H]1C(=O)N[C@@H](CCCNC(=N)N)C(=O)N[C@@H](CO)C(=O)N[C@@H](CCCCN)C(=O)N[C@H](C(=O)N[C@@H](CO)C(=O)N1CCC[C@H]1C(=O)N[C@@H](CCC(N)=O)C(=O)N[C@H](C(=O)N[C@@H](CCSC)C(N)=O)[C@@H](C)O)[C@@H](C)CC)C(C)C)[C@@H](C)O [compound 215] (H-GCRTGTCTVQRLAHQIYQFTDKFKDNVAPRSKISPQTM-NH2; disulfide 2-7) |
